Assay results as given in US20170296568A1, “SIRTUIN GENE POTENTIATOR, AND PHARMACEUTICAL PRODUCT, COSMETIC PRODUCT, AND FOOD PRODUCT USING SAME” (MORISHITA JINTAN CO., LTD., priority 2012, published 2017).

Tests used:
sirtuin gene hSIRT1 = assay: Expression level of endogenous sirtuin gene hSIRT1 in Caco-2 cells (quantitative PCR, relative to β-actin); format: cell-based, human; settings: 10 μM, 2 days, qPCR normalised to β-actin, FIG. 2
Method: Caco-2 cells were plated at 3.0×10^5 cells for a 5-mL dish. After 24 hours, each polyphenol was added to be 10 μM. Note that as a negative control, none of polyphenol nor terpenoid was added, and as a positive control, 10 μM resveratrol was added. At 2 days after this treatment, RNA was collected.
The total RNA was prepared using High Pure RNA Isolation Kit (manufactured by Roche, Indianapolis, Ind., USA). For the procedures from the total RNA preparation to the reverse transcription, the reagents and tools used were RNase-free. Cells were prepared in a sub-confluent to confluent condition in a cell culture dish (Greiner bio-one, Monroe, N.C., USA). The medium was completely removed, 200 μL of PBS, and 400 μL of cell lysis solution, which was contained in High Pure RNA Isolation Kit, were added, and the entire dish was well covered by the cell lysis solution. When the viscosity of the cell lysis solution was decreased, the cell lysis solution was collected into a 1.5-mL sample tube. The collected sample was well suspended. A filter tube and a collection tube, which were contained in High Pure RNA Isolation Kit, were assembled, and the sample was pipetted into a buffer reservoir in the upper portion of the filter tube, and was centrifuged at 8,000×g for 15 seconds. The flowthrough liquid into the collection tube was discarded, and the filter tube and the collection tube were again assembled. Then, 90 μL of DNase incubation buffer per sample was pipetted into a sterile reaction tube, and 10 μL of DNase I was added into the tube and mixed. The mixture liquid was pipetted into the buffer reservoir in the upper portion of the filter tube, was added on the glass fiber fleece in the filter tube, and was incubated at room temperature for 15 minutes. Then, 500 μL of wash buffer I, which was contained in High Pure RNA Isolation Kit, was added to the buffer reservoir in the upper portion of the filter tube, and was centrifuged at 8,000×g for 15 seconds. The flowthrough liquid into the collection tube was discarded, and the filter tube and the collection tube were again assembled. Then, 500 μL of wash buffer II was added to the buffer reservoir in the upper portion of the filter tube, and centrifugation was performed at 8,000×g for 15 seconds. The liquid discharged to the collection tube was discarded, and the filter tube and the collection tube were again assembled. Then, 200 μL of wash buffer II was added to the buffer reservoir in the upper portion of the filter tube, and centrifugation was performed at 13,000×g for 2 minutes, after which a remaining wash buffer in the filter tube was removed. The collection tube was discarded, the filter tube was inserted into a sterile reaction tube, and 50 μL of elution buffer was added in the filter tube, and centrifugation was performed at 8,000×g for 1 minute. The eluate obtained by the procedures was taken as an RNA solution. The concentration of RNA in the solution was calculated based on the light absorbance at 260 nm with a NanoDrop 2000/2000c spectrophotometer (Thermo Scientific, Waltham, Mass., USA), for use in subsequent experiments.
Then, 5 pmol of oligo(dT)20 primer was added to 1.0 μg of total RNA extracted from the cells, and sterile water was further added thereto so that the total liquid amount was 13 μL. Heat treatment was performed using a thermal cycler (Peltier Thermal Cycler PTC-200, MJ Research, Watertown, Mass., USA) at 65° C. for 5 minutes, and the resultant was immediately transferred in ice to quench it. During this treatment, the reverse transcriptase reaction program was advanced to the 42° C. stage and was temporarily stopped. A mixture solution obtained by mixing 4 μL of reverse transcriptase reaction buffer solution, 2 μL of 1 mM dNTPs (Amershan Pharmacia Biotech., Buckinghamshire, UK), and 0.5 μL of reverse transcriptase ReverTra Ace (TOYOBO, Osaka, Japan) per sample was added to and gently mixed with the sample on ice after 5 minutes. […]

hSIRT1 promoter = assay: Enhancing the hSIRT1 promoter: EGFP fluorescence intensity in HaCaT-hSIRT1p-EGFP cells by flow cytometry; format: cell-based, human; settings: 10 μM in DMSO, 24 hours after addition, FIG. 4
Method: HaCaT cells (human epidermis keratinocyte-derived cell lines, provided by Dr. Takumi Miura, National Center for Child Health and Development) were cultured using a Dalbecco's Modified Eagle Medium (DMEM) medium (Nissui Pharmaceutical Co., Ltd, Tokyo) supplemented with 10% FBS, 100,000 U/L penicillin (Meiji, Tokyo), 100 mg/L streptomycin (Meiji), and 2.0 g/L NaHCO3. These cells were subcultured at 37° C. in the presence of 5% CO2.
HaCaT cell lines (HaCaT-hSIRT1p-EGFP cells) into which the vector (phSIRT1-EGFP) described in Reference Example 1 was integrated were prepared as below.
The HaCaT cells were disseminated at 9.0×10^5 in a φ60-mm dish, and were cultured in 10% FBS supplemented DMEM medium. Cells as a control were prepared in a similar manner. After 24 hours, 8 μg of phSIRT1p-EGFP was added to and mixed with 300 μL of DMEM medium, 24 μL of Hilymax (manufactured by Dojindo Laboratories), which is a transfection reagent, was further added and mixed therewith, and the mixture was incubated for 15 minutes at room temperature. Subsequently, the total amount was added to the HaCaT cells. After 3 hours, the medium was replaced by 10% FBS supplemented DMEM medium.
At 24 hours after the gene introduction, the medium was replaced by 10% FBS supplemented DMEM medium containing 750 μg/mL of G418 (Wako Pure Chemical Industries, Ltd.). After visually confirming under a microscope that all the control non-treated HaCaT cells were killed, the subculture was continued using 10% FBS supplemented DMEM containing 150 μg/mL of G418.
It was confirmed with flow cytometry that the phSIRT1p-EGFP vector was reliably transferred inro the cells after the subculture. The above-described cells and the control non-treated HaCaT cells were plated at 7.0×10^5 per a φ60-mm dish, respectively. After 24 hours, the cells were picked up and well suspended in 2 mL of 5% FBS supplemented DMEM medium, and were filtered through a Nylon Mesh (Kyoshin Rikoh Inc., Japan), and the EGFP fluorescence intensity thereof was measured with a Flow Cytometer (EPICS, BeckmanCoulter). The analysis was performed using software FlowJo (Tree Star, Ashland Oreg.), so that the EGFP fluorescence intensity of each cell was represented as a histogram.
HaCaT-hSIRT1p-EGFP cells were plated at 1.7×10^6 cells in a φ60-mm dish (as measured by flow cytometry) or at 2.0×10^4 cells/well in a 96-well plate (as measured by an IN Cell Analyzer 1000). After 24 hours, 10 μM of each polyphenol or terpenoid dissolved in DMSO (Wako Pure Chemical Industries, Ltd.) was added thereto. Note that as a negative control, the same amount of DMSO was added without polyphenol or terpenoid, and as a positive control, 10 μM resveratrol was added. At 24 hours after the addition of the various polyphenols or terpenoids or the controls, the fluorescence intensity was measured by flow cytometry.

| SMILES | relative gene expression level of hSIRT1 (sirtuin gene hSIRT1) | EGFP fluorescence intensity (hSIRT1 promoter activity) (hSIRT1 promoter) |
| --- | --- | --- |
| O=C1OC[C@H]2OC(O)[C@H](O)[C@@H](O)[C@@H]2OC(=O)c2cc(O)c(O)c(O)c2-c2c(O)c(O)c3oc(=O)c4c(c(O)c(O)c5oc(=O)c2c3c54)-c2c1cc(O)c(O)c2O (mixture of isomers) [punicalin] | hSIRT1 transcription enhancing effect was observed | hSIRT1 expression effect on skin epidermis cells was seen |
| C[C@@]12C=Cc3occc3[C@H]1CC[C@@]13C[C@@H](CC[C@H]12)[C@@](O)(CO)C3 [kahweol] | hSIRT1 transcription enhancing effect was observed | hSIRT1 expression effect on skin epidermis cells was seen |
| O=c1oc2cc(O)ccc2c2ccc(O)cc12 [urolithin A] | hSIRT1 transcription enhancing effect was observed | hSIRT1 expression effect on skin epidermis cells was seen |
| O=c1c(O)c(-c2ccc(O)c(O)c2)oc2cc(O)ccc12 [fisetin] | hSIRT1 transcription enhancing effect was observed | hSIRT1 expression effect on skin epidermis cells was seen |
| O=C1O[C@H]2[C@@H]3OC(=O)c4cc(O)c(O)c(O)c4-c4c(O)c(O)c5oc(=O)c6c(c(O)c(O)c7oc(=O)c4c5c76)-c4c(cc(O)c(O)c4O)C(=O)OC[C@H]3OC(O)[C@@H]2OC(=O)c2cc(O)c(O)c(O)c2-c2c1cc(O)c(O)c2O (mixture of isomers) [punicalagin] | hSIRT1 transcription enhancing effect was observed | hSIRT1 expression effect on skin epidermis cells was seen |
